Data: patent publication US20050130982A1, “Oral therapeutic or preventative drugs for pollakiuria and urinary incontinence and oral sleep inducers, containing tropolone derivatives” (Nippon Kayaku Kabushiki Kaisha, priority 2002, published 2005)
Marks after values point to notes of the source that are not given here.

Assays:
[1] = Hygroscopic evaluation at 75% relative humidity; type: physicochemical; conditions: for Weight change (mg) in 75% relative humidity: 50 mg sample; for Increase in weight (hygroscopicity, in words): 75% relative humidity for 26 days
From the text: Fifty mg of the each test sample was weighed exactly and placed in a closed container in which the relative humidity was kept at 75% and the bottom chamber was filled with saturated brine.

[2] = test system: rhythmic bladder contraction; assay: Effect on the rhythmic bladder contraction of rats (inhibition of micturition reflex); type: in vivo, rat; conditions: for Inhibition rate of the rhythmic contraction frequency of the bladder (%): anesthetized SD-IGS male rats, 120 minutes following administration; for Inhibitory activity on the frequency of the rhythmic bladder contraction (in words): rats
Procedure: The inhibitory effect on the micturition reflex was evaluated by the effect on the rhythmic bladder contraction according to the method of […] et al. (Rinshyoseiri 5, 540-547 (1975)). SD-IGS strain male rats were anesthetized by intraperitonial administration of urethane (1 g/kg). After exposing the bladder of the animal through an incision of the abdomen, a small incision was made on the top of the bladder from where a rubber balloon was inserted. The balloon was attached to a polyethylene tube connecting to a three way stopcock. The rest two ways of the stopcock were connected to a syringe for infusing water to the balloon and a transducer to measure the internal pressure of the bladder. The test animal was left for a while and then water was infused into the balloon until rhythmic contraction started. The change in the internal pressure of the bladder was recorded continuously by a polygraph. Drugs were dissolved in de-ionized water and administered through a catheter inserted in the duodenum. The effect of the drug was expressed as the inhibition ratio of the frequency of the rhythmic contraction of the bladder obtained by following formula. Inhibition rate (%)=100-{the frequency of the rhythmic contraction during 120 minutes following the administration (converted to the frequency per unit time)/the frequency of the rhythmic contraction 20 minutes immediately before the administration (converted to the frequency per unit time)×100}

[3] = test system: sleep-inducing symptoms (drowsiness); assay: Observation of sleep-inducing symptoms in dogs after oral administration; type: in vivo, dog; conditions: male Beagle dogs
Procedure: Male dogs (Beagles) were orally administered with capsules filled with the test drug 1 and the symptoms were observed. The dosages were 3 mg/kg, 10 mg/kg, 30 mg/kg and 100 mg/kg.

[4] = Measurement of bioavailability by oral administration in rats; type: in vivo, rat; conditions: for Bioavailability (%): 6.25 mg/kg oral vs intravenous, ratio of AUC
Procedure: The intravenous administration group and the oral administration group consisted of 3 rats each (6 week-old male SD-IGS strain (Japan Charles River Co.)).
Each test drug was dissolved in physiological saline or ultra-pure water and administered to the rats intravenously or orally at 6.25 mg/kg. The blood samples were collected periodically and the plasma were prepared by the routine procedures. After deproteinization, the concentration of each test drug was measured by the LC/ESI(+) SRM method (liquid chromatography/electrospray-ionization (+) selected reaction monitoring method) and the bioavailability was calculated as the ratio (percent) of AUC (area under the blood concentration-time curve) of the oral administration and AUC of the intra-venous administration.

[5] = target: T1, human serotonin 1A receptor (Homo sapiens, UniProt P08908); assay: Serotonin 1A antagonism activity: affinity to the human serotonin 1A receptor in transfected CHO cells; type: binding; conditions: 10^−6 M test drug, 0.3 nM 8-OH-DPAT, CHO cells transfected with the human serotonin 1A receptor gene
T1 construct: expressed in transfected cells; host or cells: CHO cells
T1 sequence (P08908 1-422): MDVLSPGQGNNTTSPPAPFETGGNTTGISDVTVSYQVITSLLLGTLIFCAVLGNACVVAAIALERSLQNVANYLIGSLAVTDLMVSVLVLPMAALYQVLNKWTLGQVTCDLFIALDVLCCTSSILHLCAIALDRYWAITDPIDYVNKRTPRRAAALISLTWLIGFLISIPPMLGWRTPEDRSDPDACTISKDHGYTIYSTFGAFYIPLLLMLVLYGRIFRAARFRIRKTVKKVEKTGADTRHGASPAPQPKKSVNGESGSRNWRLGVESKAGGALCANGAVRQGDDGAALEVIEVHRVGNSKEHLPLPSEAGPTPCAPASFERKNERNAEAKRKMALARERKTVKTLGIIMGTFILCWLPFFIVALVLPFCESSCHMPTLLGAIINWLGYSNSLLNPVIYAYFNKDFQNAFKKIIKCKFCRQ
Procedure: The affinity of the test drug 1 to the human serotonin 1 A receptor was measured according to the method by Mulheron et al. (J. G. Mulheron et al., J. Biol. Chem., 269, 12954-12962 (1994)) by using the CHO cells transfected with the human serotonin 1A receptor gene.

[6] = intra-duodenal administration of 6.25 mg/kg
[7] = oral capsule, group of more than 10 mg/kg

Compound | Weight change (mg) in 75% relative humidity ([1]; storage time 0 hours) [mg] | Weight change (mg) in 75% relative humidity ([1]; storage time 2 hours) [mg] | Weight change (mg) in 75% relative humidity ([1]; storage time 4 hours) [mg] | Weight change (mg) in 75% relative humidity ([1]; storage time 6 hours) [mg] | Weight change (mg) in 75% relative humidity ([1]; storage time 103 hours) [mg] | Weight change (mg) in 75% relative humidity ([1]; storage time 170 hours) [mg] | Weight change (mg) in 75% relative humidity ([1]; storage time 26 days) [mg] | Increase in weight (hygroscopicity, in words) [1] | Inhibition rate of the rhythmic contraction frequency of the bladder (%) ([2]; 6.25 mg/kg intra-duodenal) | Inhibitory activity on the frequency of the rhythmic bladder contraction (in words) [2, 6] | Bioavailability (%) ([4]; hydrochloride, 6.25 mg/kg) | Inhibition rate of the rhythmic contraction frequency of the bladder (%) ([2]; 12.5 mg/kg intra-duodenal) | further results
COc1cc(C(C)C)ccc(CN2CCN(c3ncccn3)CC2)c1=O.O=C(O)/C=C/C(=O)O [Test sample 2, 4-isopropyl-2-methoxy-7-[4-(2-pyrimidyl)piperazinomethyl]-2,4,6-cycloheptatrien-1-one 1 fumarate] | 0.0 | 0.3 | 0.4 | 0.1 | 0.1 | 0.2 | 0.2 | No substantial increase |  |  |  |  | 
COc1cc(C(C)C)ccc(CN2CCN(c3ncccn3)CC2)c1=O.Cl [Test drug 1, 4-isopropyl-2-methoxy-7-[4-(2-pyrimidyl)piperazinomethyl]-2,4,6-cycloheptatrien-1-one 1 hydrochloride] |  |  |  |  |  |  |  |  | 48.89 +/− 5.43* % | marked inhibitory activity | 57 |  | Inhibition rate of the rhythmic contraction frequency of the bladder (%) ([2]; 3.13 mg/kg intra-duodenal): 43.48%; Symptoms after oral administration ([3]; oral capsule, 3 mg/kg): no abnormal symptom was recognized; Drowsiness [3, 7]: drowsiness was observed; Time to drowsiness after administration [3, 7]: 20 to 30 min; Duration of drowsiness ([3]; oral, 30 mg/kg): 142 min; Duration of drowsiness ([3]; oral, 100 mg/kg): 318 min; Abnormal behavior other than drowsiness ([3]; oral, 3-100 mg/kg): No abnormal behavior other than drowsiness was observed; Drug concentration in the plasma ([3]; oral, 3-100 mg/kg): increased dose-dependently; Plasma concentration in rats administered orally ([4]; oral 6.25 mg/kg): ~10^−6 M; Inhibition of the binding of 8-OH-DPAT to the human serotonin 1A receptor [5]: 77%
CC(C)c1ccc(CN2CCN(c3ncccn3)CC2)c(=O)c(O)c1.Cl [Test drug 2, 2-hydroxy-4-isopropyl-7-[4-(2-pyrimidyl)piperazinomethyl]-2,4,6-cycloheptatrien-1-one 1 hydrochloride] |  |  |  |  |  |  |  |  | 26.84 +/− 5.33 (n = 4) % | marked inhibitory activity | 31 | 59.08 +/− 3.18* (n = 3) % | 
CC(C)c1ccc(CN2CCN(c3ccccc3)CC2)c(=O)c(OCc2ccccc2)c1.O=C(O)/C=C/C(=O)O [Control drug, 2-benzyloxy-4-isopropyl-7-[4-phenylpiperazinomethyl]-2,4,6-cycloheptatrien-1-one 1 fumarate, reference compound] |  |  |  |  |  |  |  |  |  |  |  | 4.81 +/− 4.09 (n = 6) % | Inhibitory activity on the frequency of the rhythmic bladder contraction (in words) ([2]; intra-duodenal, dose of 12.5 mg/kg): did not show significant activity; Bioavailability (%) [4]: 6%
COc1cc(C(C)C)ccc(CN2CCN(c3ncccn3)CC2)c1=O.O=C(O)C(O)C(O)C(=O)O.O=C(O)C(O)C(O)C(=O)O [Test sample 1, 4-isopropyl-2-methoxy-7-[4-(2-pyrimidyl)piperazinomethyl]-2,4,6-cycloheptatrien-1-one 2 DL-tartrate] | 0.0 | 0.2 | 0.2 | 0.1 | 0.1 | 0.1 | 0.1 | No substantial increase |  |  |  |  | 
